This note sets out measurements from PubChem BioAssay AID274 (DTP/NCI, 2004).

The test system of the assay is BDF1 mice, Lewis lung carcinoma iv, survival T/C. As to the kind of experiment: NCI In Vivo Anticancer Drug Screen. Data for tumor model Lewis Lung Carcinoma (intravenous) in B6D2F1 (BDF1) mice. The conditions noted are these: endpoint: median survival time, higher = longer survival. As for the experimental part:
The antitumor activity of compounds was measured in mice bearing transplantable tumors. Survival or tumor size were measured and the results are expressed as the measurement made in the treated group (T) divided by the measurement made in the vehicle treated control group (C). The tumor model used in this assay is Lewis Lung Carcinoma (intravenous) in B6D2F1 (BDF1) mice

Where [1] appears, read: dose: 2.5 mg/kg/injection, schedule: Q01DX009 (ip), vehicle: saline.
Where [2] appears, read: dose: 5.0 mg/kg/injection, schedule: Q01DX009 (ip), vehicle: saline.
[3] abbreviates: dose: 0.25 mg/kg/injection, schedule: Q01DX009 (ip), vehicle: saline.
[4] abbreviates: dose: 25.0 mg/kg/injection, schedule: Q01DX009 (ip), vehicle: saline with Tween-80.
Setting [5] is: dose: 50.0 mg/kg/injection, schedule: Q01DX009 (ip), vehicle: saline with Tween-80.
The mark [6] stands for this setting: dose: 100.0 mg/kg/injection, schedule: Q01DX009 (ip), vehicle: saline with Tween-80.
Setting [7] is: dose: 12.5 mg/kg/injection, schedule: Q01DX009 (ip), vehicle: saline with Tween-80.
Setting [8] is: dose: 200.0 mg/kg/injection, schedule: Q01DX009 (ip), vehicle: saline with Tween-80.
Where [9] appears, read: dose: 25.0 mg/kg/injection, schedule: Q01DX009 (ip), vehicle: saline.
[10] abbreviates: dose: 50.0 mg/kg/injection, schedule: Q01DX009 (ip), vehicle: saline.
Setting [11] is: dose: 100.0 mg/kg/injection, schedule: Q01DX009 (ip), vehicle: saline.

Toxic doses and inconclusive results are not listed.

As for `NC1(C(=O)O)CCCc2ccc(N(CCCl)CCCl)cc21` (stereo not given), the T/C under setting [1] is 99 % of control; the T/C under setting [2] was 98 % of control; the T/C (dose: 10.0 mg/kg/injection, schedule: Q01DX009 (ip), vehicle: saline with Tween-80) is 118 % of control; the T/C (dose: 10.0 mg/kg/injection, schedule: Q01DX009 (ip), vehicle: saline) is 109 % of control; the T/C (dose: 20.0 mg/kg/injection, schedule: Q01DX009 (ip), vehicle: saline with Tween-80) was 108 % of control.
Take `O=P1(N(CCCl)CCCl)NCCCO1` (stereo not given): the T/C is 119 % of control (dose: 39.0 mg/kg/injection, schedule: Q01DX001 (ip), vehicle: saline); 155 % of control (dose: 50.0 mg/kg/injection, schedule: Q01DX001 (ip), vehicle: saline); 174 % of control (dose: 78.0 mg/kg/injection, schedule: Q01DX001 (ip), vehicle: saline); 168 % of control (dose: 133.0 mg/kg/injection, schedule: Q10DX002 (ip), vehicle: saline); 155 % of control (dose: 200.0 mg/kg/injection, schedule: Q10DX002 (ip), vehicle: saline).
On to `O=NN(CCCl)C(=O)NC1[C@H](O)CCC[C@@H]1O` (stereo not given in full), for which the T/C was 105 % of control (dose: 0.62 mg/kg/injection, schedule: Q01DX009 (ip), vehicle: saline); 120 % of control (dose: 1.25 mg/kg/injection, schedule: Q01DX009 (ip), vehicle: saline); 159 % of control under setting [1]; 278 % of control under setting [2].
Regarding `O[C@H](CN1CC1)[C@@H](O)CN1CC1`, the T/C is 111 % of control (dose: 0.13 mg/kg/injection, schedule: Q01DX009 (ip), vehicle: saline) and 121 % of control under setting [3].
With `O=P(O)(NCCCl)NCCCl`, the T/C by setting is: (dose: 25.0 mg/kg/injection, schedule: Q01DX001 (ip), vehicle: saline with Tween-80) 111 % of control; (dose: 50.0 mg/kg/injection, schedule: Q01DX001 (ip), vehicle: saline with Tween-80) 123 % of control; (dose: 100.0 mg/kg/injection, schedule: Q01DX001 (ip), vehicle: saline with Tween-80) 208 % of control.
Take `NC(=O)c1csc(C2OC(CO)C(O)C2O)n1` (stereo not given): the T/C (dose: 25.0 mg/kg/injection, schedule: Q01DX009 (ip), vehicle: water) was 326 % of control; the T/C (dose: 50.0 mg/kg/injection, schedule: Q01DX009 (ip), vehicle: water) is 326 % of control; the T/C (dose: 100.0 mg/kg/injection, schedule: Q01DX009 (ip), vehicle: water) is 326 % of control; the T/C (dose: 200.0 mg/kg/injection, schedule: Q01DX009 (ip), vehicle: water) is 326 % of control; the T/C (dose: 330.0 mg/kg/injection, schedule: Q01DX009 (ip), vehicle: water) is 452 % of control; the T/C (dose: 400.0 mg/kg/injection, schedule: Q01DX009 (ip), vehicle: water) is 326 % of control. Moreover, the T/C (dose: 500.0 mg/kg/injection, schedule: Q01DX009 (ip), vehicle: water) was 452 % of control and the T/C (dose: 750.0 mg/kg/injection, schedule: Q01DX009 (ip), vehicle: water) is 452 % of control.
As to `Cc1ccc(N=NN(C)C)cc1`, the T/C is, setting by setting: under setting [4], 100 % of control; under setting [5], 105 % of control; under setting [6], 105 % of control.
In the case of `CC[C@H]1CN2CCc3cc(OC)c(OC)cc3[C@@H]2C[C@@H]1C[C@H]1NCCc2cc(O)c(OC)cc21`, the T/C was 109 % of control (dose: 2.0 mg/kg/injection, schedule: Q01DX009 (ip), vehicle: saline); 100 % of control (dose: 4.0 mg/kg/injection, schedule: Q01DX009 (ip), vehicle: saline); 116 % of control (dose: 8.0 mg/kg/injection, schedule: Q01DX009 (ip), vehicle: saline); 116 % of control (dose: 16.0 mg/kg/injection, schedule: Q01DX009 (ip), vehicle: saline).
As to `CCCCC(=O)OCC(=O)[C@]1(O)Cc2c(O)c3c(c(O)c2[C@@H](OC2CC(NC(=O)C(F)(F)F)C(O)C(C)O2)C1)C(=O)c1c(OC)cccc1C3=O` (stereo not given in full), the T/C reads like this: (dose: 4.0 mg/kg/injection, schedule: Q01DX009 (ip), vehicle: distilled water + Tween-80) 100 % of control; (dose: 8.0 mg/kg/injection, schedule: Q01DX009 (ip), vehicle: distilled water + Tween-80) 102 % of control; (dose: 16.0 mg/kg/injection, schedule: Q01DX009 (ip), vehicle: distilled water + Tween-80) 121 % of control.
Regarding `CCO/C=C1\SC(=S)N(c2ccccc2C)C1=O`, the T/C is, setting by setting: under setting [7], 96 % of control; under setting [4], 94 % of control; under setting [5], 100 % of control; under setting [6], 106 % of control; under setting [8], 99 % of control.
Regarding `O=C1NC(O)c2ccccc2O1` (stereo not given), the T/C under setting [7] is 108 % of control; the T/C under setting [4] was 103 % of control; the T/C under setting [5] was 105 % of control; the T/C under setting [6] was 101 % of control; the T/C under setting [8] is 112 % of control; the T/C (dose: 400.0 mg/kg/injection, schedule: Q01DX009 (ip), vehicle: saline with Tween-80) was 102 % of control.
Take `CC[N](CC)[Ge]([CH2]C)[CH2]C.CC[N](CC)[Ge]([CH2]C)[CH2]C`: the T/C runs as follows: (dose: 3.12 mg/kg/injection, schedule: Q01DX009 (ip), vehicle: suspension in saline) 113 % of control; (dose: 6.25 mg/kg/injection, schedule: Q01DX009 (ip), vehicle: suspension in saline) 95 % of control; (dose: 12.5 mg/kg/injection, schedule: Q01DX009 (ip), vehicle: suspension in saline) 96 % of control; (dose: 25.0 mg/kg/injection, schedule: Q01DX009 (ip), vehicle: suspension in saline) 106 % of control; (dose: 50.0 mg/kg/injection, schedule: Q01DX009 (ip), vehicle: suspension in saline) 100 % of control.
Consider `CO[C@@]12[C@H](COC(N)=O)C3=C(C(=O)C(C)=C(N)C3=O)N1C[C@@H]1N[C@@H]12`, for which the T/C (dose: 0.12 mg/kg/injection, schedule: Q01DX009 (ip), vehicle: saline) was 101 % of control; the T/C under setting [3] is 105 % of control; the T/C (dose: 0.5 mg/kg/injection, schedule: Q01DX009 (ip), vehicle: saline) is 98 % of control; the T/C (dose: 1.0 mg/kg/injection, schedule: Q01DX009 (ip), vehicle: saline) was 101 % of control.
As to `N=C(N)SCc1cccc2c(=O)cc(-c3ccccc3)oc12`, the T/C runs as follows: (dose: 12.5 mg/kg/injection, schedule: Q01DX009 (ip), vehicle: Klucel (hydroxypropylcellulose) (HPC)) 107 % of control; (dose: 25.0 mg/kg/injection, schedule: Q01DX009 (ip), vehicle: Klucel (hydroxypropylcellulose) (HPC)) 104 % of control; under setting [9], 106 % of control; (dose: 50.0 mg/kg/injection, schedule: Q01DX009 (ip), vehicle: Klucel (hydroxypropylcellulose) (HPC)) 107 % of control; under setting [10], 94 % of control; under setting [11], 100 % of control. Moreover, under “dose: 400.0 mg/kg/injection, schedule: Q01DX009 (ip), vehicle: saline”, the T/C was 89 % of control.
Turning to `O=C1C=CC(=O)O1` (tested in a mixture with another compound), the T/C is 101 % of control under setting [9]; 94 % of control under setting [10]; 103 % of control under setting [11]; 95 % of control (dose: 200.0 mg/kg/injection, schedule: Q01DX009 (ip), vehicle: saline).
Consider `Cc1cn(C2CC(O)C(CO)O2)c(=O)[nH]c1=O` (stereo not given), for which the T/C is 89 % of control under setting [7], 88 % of control under setting [5], 94 % of control under setting [6] and 98 % of control under setting [8].
In the case of `Cc1oc2c(C)c3oc(=O)cc(C)c3cc2c1CCl`, the T/C reads like this: under setting [7], 102 % of control; under setting [4], 101 % of control; under setting [5], 95 % of control.
